According to patent publication US11464765B2, “Use of an N-substituted pyridyl benzisoselazolone compound” (SHANGHAITECH UNIVERSITY, priority 2020, dated 2022):
Like-named read-outs stand apart in the source and are kept apart here.

Legend:
[1] = rats; cited from earlier work
[2] = test system: novel coronavirus (SARS-CoV-2); assay: in vitro cell-virus assay; format: cell-based
[3] = mice; cited from earlier work
[4] = human, in vivo; cited from earlier work

For `O=c1c2ccccc2[se]n1-c1ccccc1` [ebselen, Ebselen], the oral lethal dose [1] is given as greater than 4600 mg/kg, the “replication ability of SARS-CoV-2 in cells” value ([2]; FIG. 4) is given as “significantly inhibits the replication ability of SARS-CoV-2 in cells” and the “cytopathy caused by novel coronavirus infection” value ([2]; infected cells, FIG. 3) is given as “can prevent cytopathy caused by novel coronavirus infection”. The oral lethal dose [3] was greater than 2150 mg/kg and the “clinical safety and tolerability” value [4] was “safe and well tolerated”.
